ChEMBL document CHEMBL3046025, “Fungitoxic Properties of N-Phenylformamidoximes in Control of Benzimidazole-Resistant Isolates of Fungi” (1992)
Active and inactive are the calls of the source.

What was measured:
Botrytis cinerea [1] = experiment: Antifungal activity against Benzimidalzole-resistant Botryotinia fuckeliana isolate Bc-44 infected kidney bean leaves at 12.5 ppm treated as foliar application followed by incubation for 7 days in green house condition; assay type: functional
Botrytis cinerea [2] = experiment: Antifungal activity against Benzimidalzole-resistant Botryotinia fuckeliana isolate Bc-44 infected kidney bean leaves at 50 ppm treated as foliar application followed by incubation for 7 days in green house condition; assay type: functional
Cercospora beticola [3] = experiment: Antifungal activity against Benzimidalzole-resistant Cercospora beticola isolate Cb-19 infected in sugar beet seedlings at 3.1 ppm 24 hr-post inoculation; assay type: functional
Cercospora beticola [4] = experiment: Antifungal activity against Benzimidalzole-resistant Cercospora beticola isolate Cb-19 infected in sugar beet seedlings at 12.5 ppm 24 hr-post inoculation; assay type: functional
Cercospora beticola [5] = experiment: Antifungal activity against Benzimidalzole-resistant Cercospora beticola isolate Cb-19 infected in sugar beet seedlings at 50 ppm 24 hr-post inoculation; assay type: functional
Cercospora beticola [6] = experiment: Antifungal activity against Benzimidalzole-resistant Cercospora beticola isolate Cb-19 infected in sugar beet seedlings at 200 ppm 24 hr-post inoculation; assay type: functional
Botrytis cinerea [7] = experiment: Antifungal activity against Benzimidalzole-resistant Botryotinia fuckeliana isolate Bc-44 infected kidney bean leaves at 200 ppm applied as soil drench 3 days prior to inoculation; assay type: functional
Botrytis cinerea [8] = experiment: Antifungal activity against Benzimidalzole-sensitive Botryotinia fuckeliana isolate Bc-9 infected compound-treated kidney bean leaves at 50 ppm after 4 days; assay type: functional
Botrytis cinerea [9] = experiment: Antifungal activity against Benzimidalzole-sensitive Botryotinia fuckeliana isolate Bc-9 infected compound-treated kidney bean leaves at 200 ppm after 4 days; assay type: functional
Botrytis cinerea [10] = experiment: Ratio of EC50 for Benzimidalzole-resistant Botryotinia fuckeliana isolate Bc-20 to EC50 for Benzimidalzole-resistant Botryotinia fuckeliana isolate Bc-31; assay type: functional
Botrytis cinerea [11] = experiment: Ratio of EC50 for Benzimidalzole-sensitive Botryotinia fuckeliana isolate Bc-9 to EC50 for Benzimidalzole-resistant Botryotinia fuckeliana isolate Bc-44; assay type: functional
Botrytis cinerea [12] = experiment: Ratio of EC50 for Benzimidalzole-sensitive Botryotinia fuckeliana isolate Bc-9 to EC50 for Benzimidalzole-resistant Botryotinia fuckeliana isolate Bc-31; assay type: functional
Botrytis cinerea [13] = experiment: Ratio of EC50 for Benzimidalzole-sensitive Botryotinia fuckeliana isolate Bc-3 to EC50 for Benzimidalzole-resistant Botryotinia fuckeliana isolate Bc-44; assay type: functional
Botrytis cinerea [14] = experiment: Ratio of EC50 for Benzimidalzole-sensitive Botryotinia fuckeliana isolate Bc-3 to EC50 for Benzimidalzole-resistant Botryotinia fuckeliana isolate Bc-31; assay type: functional
Botrytis cinerea [15] = experiment: Antifungal activity against Benzimidalzole-resistant Botryotinia fuckeliana isolate Bc-44 infected compound-treated kidney bean leaves at 12.5 ppm after 4 days; assay type: functional
Cercospora beticola [16] = experiment: Antifungal activity against Benzimidalzole-resistant Cercospora beticola isolate Cb-19 infected in sugar beet seedlings at 200 ppm applied as soil drench 3 days prior to inoculation; assay type: functional
Cercospora beticola [17] = experiment: Ratio of EC50 for […] to EC50 for Benzimidalzole-resistant Cercospora beticola isole Cb-19; assay type: functional
Botrytis cinerea [18] = experiment: Antifungal activity against Benzimidalzole-resistant Botryotinia fuckeliana isolate Bc-44 at 0.001 to 1000 ppm after 3 days by agar dilution method; assay type: functional, organism-based
Cercospora beticola [19] = experiment: Ratio of EC50 for Benzimidalzole-resistant Cercospora beticola isolate 18-11 to EC50 for Benzimidalzole-resistant Cercospora beticola isolate 49-4; assay type: functional
Cercospora beticola [20] = experiment: Ratio of EC50 for Benzimidalzole-resistant Cercospora beticola isolate 18-11 to EC50 for Benzimidalzole-resistant Cercospora beticola isolate 18-2; assay type: functional
Cercospora beticola [21] = experiment: Ratio of EC50 for Benzimidalzole-resistant Cercospora beticola isolate 6-13 to EC50 for Benzimidalzole-resistant Cercospora beticola isolate 49-4; assay type: functional
Cercospora beticola [22] = experiment: Ratio of EC50 for Benzimidalzole-resistant Cercospora beticola isolate 6-13 to EC50 for Benzimidalzole-resistant Cercospora beticola isole 28-8; assay type: functional
Cercospora beticola [23] = experiment: Antifungal activity against Benzimidalzole-resistant Cercospora beticola isolate 6-13 at 0.001 to 1000 ppm after 14 days by agar dilution method; assay type: functional, organism-based
Cercospora beticola [24] = experiment: Antifungal activity against Benzimidalzole-sensitive Cercospora beticola isolate 22-5 at 0.001 to 1000 ppm after 14 days by agar dilution method; assay type: functional, organism-based
Cercospora beticola [25] = experiment: Antifungal activity against Benzimidalzole-sensitive Cercospora beticola isolate 18-1 at 0.001 to 1000 ppm after 14 days by agar dilution method; assay type: functional, organism-based
Cercospora beticola [26] = experiment: Antifungal activity against Benzimidalzole-resistant Cercospora beticola isolate Cb-19 at 0.001 to 1000 ppm after 14 days by agar dilution method; assay type: functional, organism-based
Cercospora beticola [27] = experiment: Antifungal activity against Benzimidalzole-resistant Cercospora beticola isolate 49-4 at 0.001 to 1000 ppm after 14 days by agar dilution method; assay type: functional, organism-based
Cercospora beticola [28] = experiment: Antifungal activity against Benzimidalzole-resistant Cercospora beticola isolate 18-2 at 0.001 to 1000 ppm after 14 days by agar dilution method; assay type: functional, organism-based
Cercospora beticola [29] = experiment: Antifungal activity against Benzimidalzole-sensitive Cercospora beticola isolate 18-1 infected in compound-treated sugar beet seedlings at 200 ppm after 12 days; assay type: functional
Cercospora beticola [30] = experiment: Antifungal activity against Benzimidalzole-resistant Cercospora beticola isolate 1-3 at 0.001 to 1000 ppm after 14 days by agar dilution method; assay type: functional, organism-based
Cercospora beticola [31] = experiment: Ratio of EC50 for Benzimidalzole-sensitive Cercospora beticola isolate 24-3 to EC50 for Benzimidalzole-resistant Cercospora beticola isolate 49-4; assay type: functional
Cercospora beticola [32] = experiment: Ratio of EC50 for Benzimidalzole-sensitive Cercospora beticola isolate 24-3 to EC50 for Benzimidalzole-resistant Cercospora beticola isolate 18-2; assay type: functional
Cercospora beticola [33] = experiment: Ratio of EC50 for Benzimidalzole-sensitive Cercospora beticola isolate 22-5 to EC50 for Benzimidalzole-resistant Cercospora beticola isolate 49-4; assay type: functional
Cercospora beticola [34] = experiment: Ratio of EC50 for Benzimidalzole-sensitive Cercospora beticola isolate 22-5 to EC50 for Benzimidalzole-resistant Cercospora beticola isolate 1-3; assay type: functional
Cercospora beticola [35] = experiment: Ratio of EC50 for Benzimidalzole-sensitive Cercospora beticola isolate 22-5 to EC50 for Benzimidalzole-resistant Cercospora beticola isole 28-8; assay type: functional
Cercospora beticola [36] = experiment: Ratio of EC50 for Benzimidalzole-sensitive Cercospora beticola isolate 22-5 to EC50 for Benzimidalzole-resistant Cercospora beticola isole Cb-19; assay type: functional
Cercospora beticola [37] = experiment: Ratio of EC50 for Benzimidalzole-sensitive Cercospora beticola isolate 18-1 to EC50 for Benzimidalzole-resistant Cercospora beticola isole 28-8; assay type: functional
Botrytis cinerea [38] = experiment: Antifungal activity against Benzimidalzole-resistant Botryotinia fuckeliana isolate Bc-44 infected kidney bean leaves at 3.1 ppm 24 hr post-infection measured after 3 days; assay type: functional
Botrytis cinerea [39] = experiment: Antifungal activity against Benzimidalzole-resistant Botryotinia fuckeliana isolate Bc-44 infected kidney bean leaves at 12.5 ppm 24 hr post-infection measured after 3 days; assay type: functional
Cercospora beticola [40] = experiment: Antifungal activity against Benzimidalzole-resistant Cercospora beticola isolate 18-2 infected in compound-treated sugar beet seedlings at 12.5 ppm after 12 days; assay type: functional
Cercospora beticola [41] = experiment: Antifungal activity against Benzimidalzole-resistant Cercospora beticola isolate 18-2 infected in compound-treated sugar beet seedlings at 50 ppm after 12 days; assay type: functional
Cercospora beticola [42] = experiment: Antifungal activity against Benzimidalzole-resistant Cercospora beticola isolate 18-2 infected in compound-treated sugar beet seedlings at 200 ppm after 12 days; assay type: functional
Cercospora beticola [43] = experiment: Antifungal activity against Benzimidalzole-resistant Cercospora beticola isolate Cb-19 infected in compound-treated sugar beet seedlings at 50 ppm after 12 days; assay type: functional
Cercospora beticola [44] = experiment: Antifungal activity against Benzimidalzole-resistant Cercospora beticola isolate Cb-19 infected in compound-treated sugar beet seedlings at 12.5 ppm after 12 days; assay type: functional

C#CCOc1c(Cl)cc(N/C=N/OC)cc1Cl
98%: Activity (Cercospora beticola [5])
44%: Activity (Cercospora beticola [3])
53%: Activity (Botrytis cinerea [1])
inactive: Activity (Cercospora beticola [23]) | Activity (Cercospora beticola [24]) | Activity (Cercospora beticola [25])
active: Activity (Botrytis cinerea [18]) | Activity (Cercospora beticola [26]) | Activity (Cercospora beticola [27]) | Activity (Cercospora beticola [28]) | Activity (Cercospora beticola [30])
72%: Activity (Cercospora beticola [16])
100%: Activity (Botrytis cinerea [2]) | Activity (Cercospora beticola [6]) | Activity (Botrytis cinerea [15]) | Activity (Cercospora beticola [41]) | Activity (Cercospora beticola [42]) | Activity (Cercospora beticola [43]) | Activity (Cercospora beticola [44])
> 1000: Ratio EC50 (Botrytis cinerea [10]) | Ratio EC50 (Botrytis cinerea [11]) | Ratio EC50 (Botrytis cinerea [12]) | Ratio EC50 (Botrytis cinerea [13]) | Ratio EC50 (Botrytis cinerea [14]) | Ratio EC50 (Cercospora beticola [17]) | Ratio EC50 (Cercospora beticola [19]) | Ratio EC50 (Cercospora beticola [20]) | Ratio EC50 (Cercospora beticola [21]) | Ratio EC50 (Cercospora beticola [22]) | Ratio EC50 (Cercospora beticola [31]) | Ratio EC50 (Cercospora beticola [32]) | Ratio EC50 (Cercospora beticola [33]) | Ratio EC50 (Cercospora beticola [34]) | Ratio EC50 (Cercospora beticola [35]) | Ratio EC50 (Cercospora beticola [36]) | Ratio EC50 (Cercospora beticola [37])
73%: Activity (Botrytis cinerea [38])
94%: Activity (Cercospora beticola [40])
7%: Activity (Botrytis cinerea [7])
5%: Activity (Botrytis cinerea [8])
96%: Activity (Cercospora beticola [4])
0%: Activity (Cercospora beticola [29])
93%: Activity (Botrytis cinerea [39])
8%: Activity (Botrytis cinerea [9])

C#CCOc1cc(N/C=N/OC)cc(Cl)c1OCC#C
63%: Activity (Botrytis cinerea [1])
0%: Activity (Botrytis cinerea [8]) | Activity (Cercospora beticola [29])
100%: Activity (Cercospora beticola [5]) | Activity (Cercospora beticola [6]) | Activity (Botrytis cinerea [15]) | Activity (Botrytis cinerea [39]) | Activity (Cercospora beticola [40]) | Activity (Cercospora beticola [41]) | Activity (Cercospora beticola [42]) | Activity (Cercospora beticola [43]) | Activity (Cercospora beticola [44])
inactive: Activity (Cercospora beticola [23]) | Activity (Cercospora beticola [24]) | Activity (Cercospora beticola [25])
active: Activity (Botrytis cinerea [18]) | Activity (Cercospora beticola [26]) | Activity (Cercospora beticola [27]) | Activity (Cercospora beticola [28]) | Activity (Cercospora beticola [30])
77%: Activity (Botrytis cinerea [7])
7%: Activity (Botrytis cinerea [9])
90%: Activity (Botrytis cinerea [2])
> 1000: Ratio EC50 (Botrytis cinerea [10]) | Ratio EC50 (Botrytis cinerea [11]) | Ratio EC50 (Botrytis cinerea [12]) | Ratio EC50 (Botrytis cinerea [13]) | Ratio EC50 (Botrytis cinerea [14]) | Ratio EC50 (Cercospora beticola [17]) | Ratio EC50 (Cercospora beticola [19]) | Ratio EC50 (Cercospora beticola [20]) | Ratio EC50 (Cercospora beticola [21]) | Ratio EC50 (Cercospora beticola [22]) | Ratio EC50 (Cercospora beticola [31]) | Ratio EC50 (Cercospora beticola [32]) | Ratio EC50 (Cercospora beticola [33]) | Ratio EC50 (Cercospora beticola [34]) | Ratio EC50 (Cercospora beticola [35]) | Ratio EC50 (Cercospora beticola [36]) | Ratio EC50 (Cercospora beticola [37])
94%: Activity (Cercospora beticola [16])
54%: Activity (Cercospora beticola [3])
91%: Activity (Cercospora beticola [4]) | Activity (Botrytis cinerea [38])
